{
  "source": "patent US20110190266A1",
  "about": "“5,6,6a,7,8,9-HEXAHYDRO-2H-PYRIDOPHTHALAZINONE INHIBITORS OF POLY(ADP-RIBOSE)POLYMERASE (PARP)” (priority 2010, published 2011)",
  "origin": "cited, not measured here",
  "key": {"[1]": {"tested_on": "BRCA2-deficient cell line V-C8", "conditions": "BRCA2-deficient V-C8 compared with the BRCA2 wild type control"}, "PARP-1": {"biological_target": "PARP-1 (Homo sapiens, UniProt P09874)", "sequence (P09874 whole entry, species assumed)": "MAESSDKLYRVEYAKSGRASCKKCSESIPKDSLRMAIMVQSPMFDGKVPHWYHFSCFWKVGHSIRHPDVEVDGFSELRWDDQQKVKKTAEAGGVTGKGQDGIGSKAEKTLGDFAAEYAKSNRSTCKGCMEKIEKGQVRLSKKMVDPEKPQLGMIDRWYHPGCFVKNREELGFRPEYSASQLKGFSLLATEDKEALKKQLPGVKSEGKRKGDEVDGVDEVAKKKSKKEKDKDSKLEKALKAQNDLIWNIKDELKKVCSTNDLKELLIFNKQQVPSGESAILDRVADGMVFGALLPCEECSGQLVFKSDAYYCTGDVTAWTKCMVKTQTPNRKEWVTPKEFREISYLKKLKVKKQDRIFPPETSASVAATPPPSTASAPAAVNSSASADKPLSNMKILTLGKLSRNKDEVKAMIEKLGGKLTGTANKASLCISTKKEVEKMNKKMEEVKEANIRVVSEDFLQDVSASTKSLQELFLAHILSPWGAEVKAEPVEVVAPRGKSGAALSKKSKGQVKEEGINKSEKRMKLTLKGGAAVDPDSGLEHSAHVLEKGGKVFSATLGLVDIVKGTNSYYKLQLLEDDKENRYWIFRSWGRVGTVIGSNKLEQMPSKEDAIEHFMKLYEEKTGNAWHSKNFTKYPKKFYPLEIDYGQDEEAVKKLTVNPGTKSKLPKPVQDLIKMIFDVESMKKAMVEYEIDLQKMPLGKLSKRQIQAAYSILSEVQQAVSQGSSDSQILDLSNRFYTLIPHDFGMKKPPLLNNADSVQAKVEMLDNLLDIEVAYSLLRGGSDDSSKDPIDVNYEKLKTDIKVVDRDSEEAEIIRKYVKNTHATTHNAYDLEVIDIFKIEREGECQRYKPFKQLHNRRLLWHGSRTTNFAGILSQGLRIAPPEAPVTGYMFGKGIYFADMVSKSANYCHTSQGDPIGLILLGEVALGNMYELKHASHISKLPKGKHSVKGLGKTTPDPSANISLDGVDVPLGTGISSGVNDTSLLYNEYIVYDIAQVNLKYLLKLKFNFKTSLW"}, "CAPAN-1 cells": {"tested_on": "CAPAN-1 cells", "conditions": "CAPAN-1 cells in DMEM supplemented with FCS (20% v/v), glutamine and antibiotics"}},
  "note": "Read-outs that look alike come from different tables or passages of the source.",
  "data": [
    {"smiles": "CN(C)Cc1ccc(-c2nc3cccc4c3n2CCNC4=O)cc1", "note": "[AG14361]", "values": [
      {"measurement": "sensitivity in clonogenic survival assay", "setting": "[1]", "value": "exhibited sensitivity"},
      {"measurement": "Ki", "setting": "PARP-1; PARP-1 inhibitor", "value": 0.005, "unit": "µM"}
    ]},
    {"smiles": "O=C1CCC(=O)N1c1cc(Cc2n[nH]c(=O)c3ccccc23)ccc1F", "note": "[KU0058684]", "values": [
      {"measurement": "sensitivity to PARP inhibition in clonogenic survival assay", "setting": "CAPAN-1 cells", "value": "showing sensitivity"},
      {"measurement": "in vivo efficacy, tumor growth", "setting": "BRCA2-deficient tumors", "value": "in vivo efficacy in blocking the growth of BRCA2-deficient tumors"}
    ]},
    {"smiles": "Cc1nc2c(O)cccc2c(=O)[nH]1", "note": "[NU1025]", "values": [
      {"measurement": "sensitivity in clonogenic survival assay", "setting": "[1]", "value": "exhibited sensitivity"},
      {"measurement": "Ki", "setting": "PARP-1; moderately potent PARP-1 inhibitor", "value": 0.05, "unit": "µM"}
    ]}
  ]
}
